The values that follow come from patent US12187701B2, “Taire family kinase inhibitors and uses thereof” (Dana-Farber Cancer Institute, Inc., priority 2018, dated 2025).

For one assay, the system named is HCT116 cells. Briefly: Antiproliferation assay, Cell Titer Glo, 72 hours. Format: cell-based. The settings on record: Homo sapiens, HCT-116, 72 h. On the procedure: HCT116 cells were plated in 384-well plates at 750 cells/well in 50 ul fresh media (McCoy's 5A+10% FBS+1% Penn/Strep) and treated with 0.1 μl candidate compounds in four-fold dilution series using the Janus pinner. Cells were incubated with compounds for 72 hours in 37° C. 5% CO2. Anti-proliferative effects of these compounds were assessed 72 hours after compound addition using Cell Titer Glo (Promega cat #G7571) as described in product manual by luminescence measurements using an Envision platereader. All proliferation assays were performed in biological quadruplicate. IC50 values were determined using a non-linear regression curve fit in GraphPad Prism 6.
(In general: ATP-based viability assays read luminescence as a measure of living cells.)

A further assay has as its target Cdk14/CycY (Homo sapiens (Human), UniProt O94921). The assay is described as follows: Lanthascreen Eu kinase binding assay for Cdk14/CycY with 30 minute pre-incubation. The settings on record: 30 minute pre-incubation of kinase with compound; read-out: IC50 CDK14 binding by Lanthascreen. The method, then:
Lanthascreen Eu kinase binding assays were conducted for Cdk14/CycY largely as performed in the commercial assay service by Life Technologies, but included a 30 minute pre-incubation step of the kinase with candidate compounds to facilitate covalent bond formation.
In general terms: In TR-FRET formats the signal depends on donor and acceptor labels being close together.

Sequence of Cdk14/CycY (O94921 whole entry): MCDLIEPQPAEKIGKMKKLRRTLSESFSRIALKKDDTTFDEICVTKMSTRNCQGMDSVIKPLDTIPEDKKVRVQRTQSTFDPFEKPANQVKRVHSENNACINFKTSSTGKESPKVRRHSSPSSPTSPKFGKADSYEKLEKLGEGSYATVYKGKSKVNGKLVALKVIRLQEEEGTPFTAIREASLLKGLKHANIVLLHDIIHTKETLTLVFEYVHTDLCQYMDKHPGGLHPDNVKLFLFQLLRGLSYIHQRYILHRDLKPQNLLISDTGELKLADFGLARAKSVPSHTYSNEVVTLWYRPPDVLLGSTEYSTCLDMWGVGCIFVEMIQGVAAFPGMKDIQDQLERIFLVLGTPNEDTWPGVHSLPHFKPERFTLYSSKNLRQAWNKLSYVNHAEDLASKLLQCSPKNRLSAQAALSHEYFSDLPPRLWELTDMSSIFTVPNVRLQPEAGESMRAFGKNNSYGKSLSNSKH
Sequence of Cdk14/CycY (Q8ND76 whole entry partner): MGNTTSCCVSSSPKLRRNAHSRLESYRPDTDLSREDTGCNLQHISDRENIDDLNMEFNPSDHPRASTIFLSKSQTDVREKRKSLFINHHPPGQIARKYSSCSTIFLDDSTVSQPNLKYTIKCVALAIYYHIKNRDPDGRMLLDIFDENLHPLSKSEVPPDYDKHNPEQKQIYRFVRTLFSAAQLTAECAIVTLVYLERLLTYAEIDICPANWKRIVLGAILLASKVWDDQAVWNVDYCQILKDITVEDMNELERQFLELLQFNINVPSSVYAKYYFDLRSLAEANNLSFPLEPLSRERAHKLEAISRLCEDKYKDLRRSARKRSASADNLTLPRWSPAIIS

As usually defined, the IC50 is the concentration that inhibits the measured activity by half. Take `C=CC(=O)Nc1ccc(S(=O)(=O)N2CCC(NC(=O)c3n[nH]cc3NC(=O)c3c(Cl)cccc3Cl)CC2)cc1` [FMF-03-197-1, N-(1-((4-acrylamidophenyl)sulfonyl)piperidin-4-yl)-4-(2,6-dichlorobenzamido)-1H-pyrazole-3-carboxamide]: the IC50 turned out to be 31 nM in the assay on HCT116 cells and 62 nM at Cdk14/CycY.
The like results for `C=CC(=O)Nc1ccc(CN2CCC(NC(=O)c3n[nH]cc3NC(=O)c3c(Cl)cccc3Cl)CC2)cc1` [FMF-03-199-1, N-(1-(4-acrylamidobenzyl)piperidin-4-yl)-4-(2,6-dichlorobenzamido)-1H-pyrazole-3-carboxamide] were, in that order, < 0.1 nM and 10 nM.
The like results for `C=CC(=O)Nc1ccc(C(=O)Nc2cccc(NC(=O)c3n[nH]cc3NC(=O)c3c(Cl)cccc3Cl)c2)cc1` [FMF-03-203-1, N-(3-(4-acrylamidobenzamido)phenyl)-4-(2,6-dichlorobenzamido)-1H-pyrazole-3-carboxamide] were, in that order, 6 nM and 609 nM.
For `CN(C)C/C=C/C(=O)Nc1ccc(C(=O)Nc2cccc(NC(=O)c3n[nH]cc3NC(=O)c3c(Cl)cccc3Cl)c2)cc1` [FMF-03-204-1, (E)-4-(2,6-dichlorobenzamido)-N-(3-(4-(4-(dimethylamino)but-2-enamido)benzamido)phenyl)-1H-pyrazole-3-carboxamide], in that order: 24 nM and 72 nM.
Take `C=CC(=O)Nc1cccc(C(=O)Nc2cccc(NC(=O)c3n[nH]cc3NC(=O)c3c(Cl)cccc3Cl)c2)c1` [FMF-04-011-1, N-(3-(3-acrylamidobenzamido)phenyl)-4-(2,6-dichlorobenzamido)-1H-pyrazole-3-carboxamide]: the results for the concentration for half-maximal inhibition (IC50) in the assay on HCT116 cells and on Cdk14/CycY were 31 nM and 308 nM, respectively.
For `C=CC(=O)Nc1ccc(C(=O)Nc2ccc(NC(=O)c3n[nH]cc3NC(=O)c3c(Cl)cccc3Cl)cc2)cc1` [FMF-04-012-1], in that order: 8 nM and 169 nM.
The like results for `C=CC(=O)Nc1ccc(S(=O)(=O)N2CCC[C@@H](NC(=O)c3n[nH]cc3NC(=O)c3c(Cl)cccc3Cl)C2)cc1` [FMF-04-056-1, (R)—N-(1-((4-acrylamidophenyl)sulfonyl)piperidin-3-yl)-4-(2,6-dichlorobenzamido)-1H-pyrazole-3-carboxamide] were, in that order, > 10000 nM and > 1000 nM.
The like results for `C=CC(=O)Nc1cccc(S(=O)(=O)N2CCC[C@@H](NC(=O)c3n[nH]cc3NC(=O)c3c(Cl)cccc3Cl)C2)c1` [FMF-04-057-1, (R)—N-(1-((3-acrylamidophenyl)sulfonyl)piperidin-3-yl)-4-(2,6-dichlorobenzamido)-1H-pyrazole-3-carboxamide] were, in that order, > 10000 nM and 836 nM.
Consider `CN(C)C/C=C/C(=O)Nc1cccc(S(=O)(=O)N2CCC[C@@H](NC(=O)c3n[nH]cc3NC(=O)c3c(Cl)cccc3Cl)C2)c1` [FMF-04-057-2, (R,E)-4-(2,6-dichlorobenzamido)-N-(1-((3-(4-(dimethylamino)but-2-enamido)phenyl)sulfonyl)piperidin-3-yl)-1H-pyrazole-3-carboxamide], for which the figures for the IC50 in the assay with HCT116 cells and at Cdk14/CycY were 9840 nM and > 1000 nM, respectively.
For the compound `C=CC(=O)Nc1ccc(C(=O)N2CCC[C@@H](NC(=O)c3n[nH]cc3NC(=O)c3c(Cl)cccc3Cl)C2)cc1` [FMF-04-058-1, (R)—N-(1-(4-acrylamidobenzoyl)piperidin-3-yl)-4-(2,6-dichlorobenzamido)-1H-pyrazole-3-carboxamide], the IC50 is > 10000 nM with HCT116 cells and > 1000 nM on Cdk14/CycY.
The like results for `CN(C)C/C=C/C(=O)Nc1ccc(C(=O)N2CCC[C@@H](NC(=O)c3n[nH]cc3NC(=O)c3c(Cl)cccc3Cl)C2)cc1` [FMF-04-058-2, (R,E)-4-(2,6-dichlorobenzamido)-N-(1-(4-(4-(dimethylamino)but-2-enamido)benzoyl)piperidin-3-yl)-1H-pyrazole-3-carboxamide] were, in that order, 726 nM and > 1000 nM.
Take `C=CC(=O)Nc1cccc(C(=O)N2CCC[C@@H](NC(=O)c3n[nH]cc3NC(=O)c3c(Cl)cccc3Cl)C2)c1` [FMF-04-059-1, (R)—N-(1-(3-acrylamidobenzoyl)piperidin-3-yl)-4-(2,6-dichlorobenzamido)-1H-pyrazole-3-carboxamide]: the IC50 in the assay with HCT116 cells is 4040 nM; at Cdk14/CycY it was > 1000 nM.
For `CN(C)C/C=C/C(=O)Nc1cccc(C(=O)N2CCC[C@@H](NC(=O)c3n[nH]cc3NC(=O)c3c(Cl)cccc3Cl)C2)c1` [FMF-04-059-2, (R,E)-4-(2,6-dichlorobenzamido)-N-(1-(3-(4-(dimethylamino)but-2-enamido)benzoyl)piperidin-3-yl)-1H-pyrazole-3-carboxamide], in that order: > 10000 nM and > 1000 nM.
As for `Cc1cc(NC(=O)c2cccc(NC(=O)/C=C/CN(C)C)c2)ccc1NC(=O)c1n[nH]cc1NC(=O)c1c(Cl)cccc1Cl` [FMF-04-085-2, (E)-4-(2,6-dichlorobenzamido)-N-(4-(3-(4-(dimethylamino)but-2-enamido)benzamido)-2-methylphenyl)-1H-pyrazole-3-carboxamide], the IC50 is 320 nM in the assay with HCT116 cells and 1160 nM at Cdk14/CycY.
For `C=CC(=O)Nc1cccc(S(=O)(=O)N2CCC(N(C)C(=O)c3n[nH]cc3NC(=O)c3c(Cl)cccc3Cl)CC2)c1` [FMF-04-086-1, N-(1-((3-acrylamidophenyl)sulfonyl)piperidin-4-yl)-4-(2,6-dichlorobenzamido)-N-methyl-1H-pyrazole-3-carboxamide], in that order: > 10000 nM and > 1000 nM.
For the compound `C=CC(=O)Nc1cccc(S(=O)(=O)N2CCC(NC(=O)c3nscc3NC(=O)c3c(Cl)cccc3Cl)CC2)c1` [FMF-04-089-1, N-(1-((3-acrylamidophenyl)sulfonyl)piperidin-4-yl)-4-(2,6-dichlorobenzamido)isothiazole-3-carboxamide], the figures for the IC50 in the assay on HCT116 cells and on Cdk14/CycY were 563 nM and > 1000 nM, respectively.
Consider `C=CC(=O)Nc1cccc(S(=O)(=O)N2CCC(NC(=O)c3c(NC(=O)c4c(Cl)cccc4Cl)cnn3C)CC2)c1` [FMF-04-120-1, N-(1-((3-acrylamidophenyl)sulfonyl)piperidin-4-yl)-4-(2,6-dichlorobenzamido)-1-methyl-1H-pyrazole-5-carboxamide], for which the half-maximal inhibitory concentration (IC50) with HCT116 cells is 2420 nM; at Cdk14/CycY, > 1000 nM.
`C=CC(=O)Nc1cccc(CN2CCC(NC(=O)c3n[nH]cc3NC(=O)c3c(Cl)cc(Cl)cc3Cl)CC2)c1` [FMF-04-158-1, N-(1-(3-acrylamidobenzyl)piperidin-4-yl)-4-(2,4,6-trichlorobenzamido)-1H-pyrazole-3-carboxamide]: the IC50 in the assay on HCT116 cells came out at 11 nM; on Cdk14/CycY, 198 nM.
As for `CN(C)C/C=C/C(=O)Nc1cccc(CN2CCC(NC(=O)c3n[nH]cc3NC(=O)c3c(F)cccc3F)CC2)c1` [FMF-04-160-2, (E)-4-(2,6-difluorobenzamido)-N-(1-(3-(4-(dimethylamino)but-2-enamido)benzyl)piperidin-4-yl)-1H-pyrazole-3-carboxamide], the IC50 in the assay on HCT116 cells amounted to 437 nM; on Cdk14/CycY, 223 nM.
For the compound `C=CC(=O)Nc1cccc(S(=O)(=O)N2CCC(NC(=O)c3n[nH]c(C)c3NC(=O)c3c(Cl)cccc3Cl)CC2)c1` [FMF-04-181-1, N-(1-((3-acrylamidophenyl)sulfonyl)piperidin-4-yl)-4-(2,6-dichlorobenzamido)-5-methyl-1H-pyrazole-3-carboxamide], the IC50 in the assay on HCT116 cells is > 10000 nM; at Cdk14/CycY, > 1000 nM.
For `CN(C)C/C=C/C(=O)Nc1cccc(C(=O)Nc2cccc(NC(=O)c3n[nH]cc3NC(=O)c3c(Cl)cccc3Cl)c2)c1` [FMF-04-196-1, (E)-4-(2,6-dichlorobenzamido)-N-(3-(3-(4-(dimethylamino)but-2-enamido)benzamido)phenyl)-1H-pyrazole-3-carboxamide], in that order: 366 nM and 41 nM.
For `C=CC(=O)Nc1cccc(CN2CCC(NC(=O)c3n[nH]cc3NC(=O)c3c(F)cc(F)cc3F)CC2)c1` [FMF-04-200-1, N-(1-(3-acrylamidobenzyl)piperidin-4-yl)-4-(2,4,6-trifluorobenzamido)-1H-pyrazole-3-carboxamide], in that order: 1.9 nM and 31 nM.
Take `C=CC(=O)Nc1cccc(S(=O)(=O)N2CCC(NC(=O)c3n[nH]cc3NC(=O)c3ccccc3)CC2)c1` [FMF-05-027-1, N-(1-((3-acrylamidophenyl)sulfonyl)piperidin-4-yl)-4-benzamido-1H-pyrazole-3-carboxamide]: the figures for the IC50 in the assay on HCT116 cells and at Cdk14/CycY were 382 nM and 315 nM, respectively.
The like results for `COc1cc(OC)c(C(=O)Nc2c[nH]nc2C(=O)NC2CCN(S(=O)(=O)c3cccc(NC(=O)/C=C/CN(C)C)c3)CC2)c(OC)c1` [FMF-05-028-2, (E)-N-(1-((3-(4-(dimethylamino)but-2-enamido)phenyl)sulfonyl)piperidin-4-yl)-4-(2,4,6-trimethoxybenzamido)-1H-pyrazole-3-carboxamide] were, in that order, > 10000 nM and 221 nM.
On to `C=CC(=O)Nc1cccc(S(=O)(=O)N2CC[C@@H](NC(=O)c3n[nH]cc3NC(=O)c3c(Cl)cccc3Cl)C2)c1` [FMF-05-065-1, (R)-N-(1-((3-acrylamidophenyl)sulfonyl)pyrrolidin-3-yl)-4-(2,6-dichlorobenzamido)-1H-pyrazole-3-carboxamide], for which the concentration for half-maximal inhibition (IC50) was 467 nM in the assay on HCT116 cells and > 10000 nM on Cdk14/CycY.
